# Earlier results as cited in patent US20160346171A1, “ORAL COMPOSITION AND CONFECTION” (TEIKYO UNIVERSITY, priority 2015, published 2016).
# Like-named read-outs stand apart in the source and are kept apart here.
# Experiments:
# [1] = tested on: Candida; conditions: mouse
# [2] = tested on: Candida; conditions: for concentration inhibiting in vitro Candida mycelial growth by 95%: each independently, JP 2013-40156 A
SMILES,"tongue symptoms ([1]; 19.5 mg/mL solution, three times (50 μL at a time) into the oral cavity, Taguchi Y. et al. 2011)",concentration inhibiting in vitro Candida mycelial growth by 95% [2],concentration inhibiting in vitro Candida mycelial growth by 50% ([2]; Inoue S. et al. 2012) [µg/mL],"tongue symptoms ([1]; 1% (=10 mg/mL) solution, three times (50 μL at a time), JP 2013-40156 A)"
O=CC=Cc1ccccc1 [cinnamaldehyde],ameliorated the tongue symptoms,,,
CC(C)=CCCC(C)=CC=O [citral],,at least 50 μg/mL,,
CCCCCCCCCC(=O)O [decanoic acid],,at least 3.13 μg/mL,≥ 3.13,ameliorated the tongue symptoms
C=CCc1ccc(O)c(OC)c1 [eugenol],,at least 200 μg/mL,,
CC(C)=CCC/C(C)=C/CO [geraniol],,at least 25 μg/mL,,
